From US20240368191A1, “HETEROCYCLIC COMPOUNDS AND USES THEREOF” (Kumquat Biosciences Inc., priority 2021, published 2024)
pIC50: −log10 of the molar value.

Columns and labels:
A549 cells = experiment: Cell proliferation assay (CellTiter-Glo), K-Ras G12S cells; assay type: cell-based; settings: Homo sapiens, A549; ≤500 nM; read-out: Inhibition of A549 Cells (IC50)
Description: (§1) A549 (ATCC CRL-185) and LS123 (ATCC CRL-255) cell lines comprise a G12S mutation and can be used to assess Ras cellular signaling in vitro, e.g., in response to the compounds herein. A549 culture medium is prepared with RPMI-1640 and 10% heat-inactivated FBS. LS123 culture medium is prepared with RPMI-1640 and 10% heat-inactivated FBS. A CellTiter-Glo (CTG) luminescent based assay (Promega) is used to assess growth of the cells, as a measurement of the ability of the compounds herein to inhibit Ras signaling in the cells. The cells (e.g., 800 per well) are seeded in their respective culture medium in standard tissue culture-treated 384-well format plates (Falcon #08-772-116) or ultra-low attachment surface 384-well format plates (S-Bio #MS-9384WZ). The day after plating, cells are treated with a dilution series (e.g., a 10 point 3-fold dilution series) of the compounds herein (e.g., approximately 40 μl final volume per well). Cell viability can be monitored (e.g., approximately 6 days later) according to the manufacturer's recommended instructions, where the CellTiter-Glo reagent is added (e.g., approximately 10 μl), vigorously mixed, covered, and placed on a plate shaker (e.g., approximately for 20 min) to ensure sufficient cell lysis prior to assessment of luminescent signal. The IC50 values are determined using the four parameter fit. The resulting IC50 value is a measurement of the ability of the compounds herein to reduce cell growth of Ras-driven cells (e.g., tumor cell lines) in vitro and/or in vivo.

in vitro = settings: microsomes, pH 7.4
GP2D cells = experiment: Cell proliferation assay (CellTiter-Glo), K-Ras G12D cells; assay type: cell-based; settings: bins given, read-out: Inhibition of GP2D Cells (IC50)
Description: ASPC-1 (ATCC CRL-1682), Panc-10.05 (ATCC CRL-2547), A427, and GP2D (Sigma 95090714) cell lines comprise a G12D mutation and can be used to assess Ras cellular signaling in vitro, e.g., in response to the compounds herein. […] ASPC-1 culture medium is prepared with RPMI-1640 and 10% heat-inactivated FBS. Panc-10.05 culture medium is prepared with RPMI-1640, 10 Units/ml human recombinant insulin, and 10% FBS. A427 cell culture is prepared with RPMI-1640 and 10% heat-inactivated FBS. GP2D culture medium is prepared with DMEM with 2 mM glutamine and 10% heat-inactivated FBS. A CellTiter-Glo (CTG) luminescent based assay (Promega) is used to assess growth of the cells, as a measurement of the ability of the compounds herein to inhibit Ras signaling in the cells. The cells (e.g., 800 per well) are seeded in their respective culture medium in standard tissue culture-treated 384-well format plates (Falcon #08-772-116) or ultra-low attachment surface 384-well format plates (S-Bio #MS-9384UZ). The day after plating, cells are treated with a dilution series (e.g., a 9 point 3-fold dilution series) of the compounds herein (e.g., approximately 40 μl final volume per well). Cell viability can be monitored (e.g., approximately 5 days later) according to the manufacturer's recommended instructions, where the CellTiter-Glo reagent is added (e.g., approximately 10 μl), vigorously mixed, covered, and placed on a plate shaker (e.g., approximately for 20 min) to ensure sufficient cell lysis prior to assessment of luminescent signal. The IC50 values are determined using the four parameter fit. The resulting IC50 value is a measurement of the ability of the compounds herein to reduce cell growth of Ras-driven cells (e.g., tumor cell lines) in vitro and/or in vivo.

LS123 cells = experiment: Cell proliferation assay (CellTiter-Glo), K-Ras G12S cells; assay type: cell-based; settings: Comparative Compound A lacking the warhead vs Compound B
Description: as §1

[1] = molecular target: T1, KRAS G12D 1-169 (His-tagged, GDP-loaded) (Homo sapiens, UniProt P01116, G12D); experiment: Covalent modification of KRAS protein by intact-protein LC-MS; assay type: binding; settings: comparable or same conditions as K-Ras G12S
T1 construct: His -tagged GDP-loaded G12D 1-169; made in house; host or cells: E. coli, e.g. BL21 (DE3)
Summary of the method: (§2)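 Percent modification is derived from deconvoluted intact-protein LC-ESI-MS peak intensities of adducted versus unmodified KRAS. GDP-loaded His-tagged KRAS 1-169 (~2 μM, HEPES buffer at physiological conditions) was exposed to compound for 24 hrs at room temperature, then quenched with formic acid before C4 reversed-phase separation.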

[2] = Metabolic (microsomal) stability assay; settings: pooled liver microsomes, pH 7.4
K-Ras G12S = molecular target: T2, K-Ras G12S (Homo sapiens, UniProt P01116, G12S); experiment: HTRF assay, K-Ras G12S / SOS1 interaction; assay type: biochemical; settings: IC50 against K-Ras G12D divided by IC50 against K-Ras G12S
T2 construct: made in house; host or cells: E. coli, e.g. BL21 (DE3)
Excerpt: This assay can be also used to assess a selective inhibition or reduction of signaling output of a mutant Ras protein relative to a wildtype, or relative to a different mutant Ras protein. For example, the equilibrium interaction of wildtype Kras or K-Ras mutant (e.g., wildtype or a mutant thereof including those mentioned in Example 6) with SOS1 (e.g., hSOS1) can be assessed as a proxy or an indication for a subject compound's ability to bind and inhibit Ras protein. HTRF assay detects from (i) a fluorescence resonance energy transfer (FRET) donor (e.g., antiGST-Europium) that is bound to GST-tagged K-Ras mutant to (ii) a FRET acceptor (e.g., anti-6His -XL665) bound to a His -tagged hSOS1.
The assay buffer can contain ˜5 mM HEPES pH 7.4, ˜150 mM NaCl, ˜1 mM DTT, 0.05% BSA and 0.0025% (v/v) Igepal. A Ras working solution is prepared in an assay buffer containing typically a suitable amount of the protein construct (e.g., GST-tagged K-Ras mutant) and the FRET donor (e.g., antiGST-Eu(K) from Cisbio, France). A SOS1 working solution is prepared in an assay buffer containing suitable amount of the protein construct (e.g., His -hSOS1) and the FRET acceptor (e.g., anti-6His -XL665 from Cisbio, France). A suitable amount of the protein construct will depend on the range of activity or range of IC50 values being detected or under investigation. For detecting IC50 within a range of 500 nM, the protein constructs of the same range of molarity can be utilized.
A fixed volume of DMSO with or without test compound is transferred into a 384-well plate. Ras working solution is added to all wells of the test plate. SOS1 working solution is added to all wells except for those that are subsequently filled the inhibitor control solution. Upon incubation for about 10 minutes or longer, the fluorescence is measured with a M1000Pro plate reader (Tecan) using HTRF detection (excitation 337 nm, emission 1: 620 nm, emission 2: 665 nm). Compounds are tested in duplicates at different concentrations (for example, 10 μM, 2.5 μM, 0.63 μM, 0.16 μM, 0.04 μM, 0.01 μM test compound). The ratiometric data (i.e., emission 2 divided by emission 1) is used to calculate IC50 values against Ras using GraphPad Prism (GraphPad software). Following this general procedure, samples were tested with or without a subject compound disclosed herein including compounds exemplified in Table 3 to assess their abilities to inhibit K-Ras G12S relative to another mutant (e.g., K-Ras G12D). Signaling output measured in terms of IC50 values can be obtained, a ratio of IC50 against one mutant relative to another mutant can be calculated. For instance, a selective reduction of K-Ras G12S signaling output can be evidenced by a ratio greater than one. In particular, a selective reduction of K-Ras G12S signaling relative to K-Ras G12D signaling is evidenced as the ratio of IC50 (against K-Ras G12D) to IC50 (against K-Ras G12S) is greater than 1.

[3] = molecular target: T3, KRAS G12S 1-169 (His-tagged, GDP-loaded) (Homo sapiens, UniProt P01116, G12S); experiment: Covalent modification of KRAS protein by intact-protein LC-MS; assay type: binding; settings: KRAS G12S, 24 hr
T3 construct: His -tagged GDP-loaded G12S 1-169; made in house; host or cells: E. coli, e.g. BL21 (DE3)
Summary of the method: as §2

## C#Cc1c(F)ccc2cc(O)cc(-c3ncc4c(N5CC6CCC(C5)N6C(=O)n5ccc(C#N)n5)nc(OC[C@@]56CCCN5C[C@H](F)C6)nc4c3F)c12 [Compound A216, 1-(3-(7-(8-ethynyl-7-fluoro-3-hydroxynaphthalen-1-yl)-8-fluoro-2-(((2R,7aS)-2-fluoro-tetrahydro-1H-pyrrolizin-7a(5H)-yl)methoxy)pyrido[4,3-d]pyrimidin-4-yl)-3,8-diaza-bicyclo[3.2.1]octane-8-carbon-yl)-1H-pyrazole-3-carbonitrile]
A549 cells
  pIC50: ≥ 6.30
In vitro
  half-life at 0.5 μM: > 10 min
GP2D cells
  pIC50: ≥ 6.00

## C#Cc1c(F)ccc2cc(O)cc(-c3ccc4c(N5CCCC6(CN(C(=O)n7cncn7)C6)C5)nc(OC[C@@]56CCCN5C[C@H](F)C6)nc4c3F)c12 [Compound A210, (6-(7-(8-ethynyl-7-fluoro-3-hydroxynaphthalen-1-yl)-8-fluoro-2-(((2R,7aS)-2-fluoro-tetrahydro-1H-pyrrolizin-7a(5H)-yl)methoxy)quinazolin-4-yl)-2,6-diazaspiro[3.5]nonan-2-yl)(1H-1,2,4-triazol-1-yl)-methanone]
LS123 cells
  Compound IC50 Ratio IC50 (Cpd A):IC50 (Cpd B): >4 (LS123 cells)

## Cc1cn(C(=O)N2C3CCC2CN(c2nc(OC[C@@]45CCCN4C[C@H](F)C5)nc4c(F)c(-c5ccc(F)c6sc(N)c(C#N)c56)c(Cl)cc24)C3)nn1 [Compound A189, 2-amino-4-(6-chloro-8-fluoro-2-(((2R,7aS)-2-fluorotetrahydro-1H-pyrrolizin-7a(5H)-yl)meth-oxy)-4-(8-(4-methyl-1H-1,2,3-triazole-1-carbonyl)-3,8-diaza-bicyclo[3.2.1]octan-3-yl)quin-azolin-7-yl)-7-fluorobenzo[b]-thiophene-3-carbonitrile]
A549 cells
  pIC50: ≥ 6.30
GP2D cells
  pIC50: ≥ 6.00

## N#Cc1c(N)sc2c(F)ccc(-c3c(Cl)cc4c(N5CCCCC6(CN(C(=O)n7cncn7)C6)C5)nc(OC[C@@]56CCCN5C[C@H](F)C6)nc4c3F)c12 [Compound A295, 4-(4-(2-(1H-1,2,4-triazole-1-carbonyl)-2,6-diazaspiro[3.6]-decan-6-yl)-6-chloro-8-fluoro-2-(((2R,7aS)-2-fluorotetra-hydro-1H-pyrrolizin-7a(5H)-yl)methoxy)quinazolin-7-yl)-2-amino-7-fluorobenzo[b]thio-phene-3-carbonitrile]
LS123 cells
  Compound IC50 Ratio IC50 (Cpd A):IC50 (Cpd B): >4 (LS123 cells)
[1]
  covalent labeling of K-Ras G12D: essentially no detectable labeling

## N#Cc1c(N)sc2c(F)ccc(-c3c(Cl)cc4c(N5CC6(CCCN(C(=O)n7cncn7)C6)C5)nc(OC[C@@]56CCCN5C[C@H](F)C6)nc4c3F)c12 [Compound A266, 4-(4-(6-(1H-1,2,4-triazole-1-carbonyl)-2,6-diazaspiro[3.5]-nonan-2-yl)-6-chloro-8-fluoro-2-(((2R,7aS)-2-fluorotetra-hydro-1H-pyrrolizin-7a(5H)-yl)methoxy)quinazolin-7-yl)-2-amino-7-fluorobenzo[b]thio-phene-3-carbonitrile]
LS123 cells
  Compound IC50 Ratio IC50 (Cpd A):IC50 (Cpd B): >4 (LS123 cells)
[2]
  half-life at 0.5 μM: > 10 min
[1]
  covalent labeling of K-Ras G12D: essentially no detectable labeling

## N#Cc1cn(C(=O)N2CC3(CCN(c4nc(OC[C@@]56CCCN5C[C@H](F)C6)nc5c(F)c(-c6ccc(F)c7sc(N)nc67)c(Cl)cc45)CC3)C2)cn1 [Compound A179, 1-(7-(7-(2-amino-7-fluorobenzo-[d]thiazol-4-yl)-6-chloro-8-fluoro-2-(((2R,7aS)-2-fluoro-tetrahydro-1H-pyrrolizin-7a(5H)-yl)methoxy)quinazolin-4-yl)-2,7-diazaspiro[3.5]nonane-2-carbonyl)-1H-imidazole-4-carbonitrile]
K-Ras G12S
  Ratio of IC50 KRAS G12D vs. IC50 KRAS G12S: A (A: indicates that the ratio of IC50 against KrasG12D vs. IC50 against KrasG12S is 1-fold or greater)
GP2D cells
  pIC50: 5.00 to 6.00

## N#Cc1c(N)sc2c(F)ccc(-c3c(Cl)cc4c(N5CC(F)(F)C6(CN(C(=O)n7cncn7)C6)C5)nc(OC[C@@]56CCCN5C[C@H](F)C6)nc4c3F)c12 [Compound A199, 2-amino-4-(6-chloro-4-(8,8-difluoro-2-(1H-1,2,4-triazole-1-carbonyl)-2,6-diazaspiro[3.4]-octan-6-yl)-8-fluoro-2-(((2R,7aS)-2-fluorotetrahydro-1H-pyrrolizin-7a(5H)-yl)meth-oxy)quinazolin-7-yl)-7-fluoro-benzo[b]thiophene-3-carbonitrile]
A549 cells
  pIC50: ≥ 6.30
[3]
  % G12S Modification at 24 hr.: +++ (+++ indicates greater than 20% labelling)
[1]
  covalent labeling of K-Ras G12D: essentially no detectable labeling
GP2D cells
  pIC50: 5.00 to 6.00
